Among the data in patent publication US20240398828A1, “HETERO-ATOM CONTAINING COMPOUNDS AND USES THEREOF” (Kumquat Biosciences Inc., priority 2021, published 2024) are IC50 values, retold here.

One experiment concerns the target T1, PTPN2 (i.e., TC-PTP) (Homo sapiens, UniProt P17706).
T1 sequence (P17706 1-415): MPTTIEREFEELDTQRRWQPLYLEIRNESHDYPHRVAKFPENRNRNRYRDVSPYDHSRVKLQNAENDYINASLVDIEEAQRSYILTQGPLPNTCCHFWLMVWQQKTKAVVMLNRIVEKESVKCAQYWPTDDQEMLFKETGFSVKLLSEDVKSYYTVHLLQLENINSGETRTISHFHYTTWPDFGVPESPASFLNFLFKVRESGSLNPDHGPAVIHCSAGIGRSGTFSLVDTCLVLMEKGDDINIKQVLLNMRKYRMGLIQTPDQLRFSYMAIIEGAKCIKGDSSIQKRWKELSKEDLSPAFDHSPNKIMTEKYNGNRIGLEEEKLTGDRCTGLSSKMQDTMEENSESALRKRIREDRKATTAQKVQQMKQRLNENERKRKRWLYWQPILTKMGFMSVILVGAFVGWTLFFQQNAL
As to the kind of experiment: Phosphatase activity assay (DiFMUP substrate), PTPN2. The format is biochemical. To be noted: compounds binned ≤1 uM or >1 uM. On the procedure:
(§1) The selectivity and potency of a small molecule PTPN2 inhibitor as provided herein against one or more protein tyrosine phosphatase (PTP) enzymes, and specifically against PTPN2, is assessed in various ways. The one or more PTP enzymes comprise Mycobacterium protein tyrosine phosphatase A (mPTPA), Mycobacterium protein tyrosine phosphatase B (mPTPB), PTPN1 (i.e., PTP1B), PTPN2 (i.e., TC-PTP), PTPN22 (i.e., LYP), SHP-1, SHP-2, FAP-1, Meg2, HePTP, Laforin, VHX, VHR, LMWPTP, Cdc14A, LAR, CD45, PTPRG, a fragment thereof, a variant thereof, and a combination thereof. Selectivity and potency of a small molecule PTPN2 inhibitor is evaluated using a PTP activity inhibition assay. The assay is performed using a buffer comprising 50 mM HEPES buffer pH 7.5, 150 mM NaCl, 0.5 mM EDTA, 1 mM DTT, 0.001% Tween-20.
(§2) The assay is performed using a phosphated substrate, e.g., 10 mM 6,8-Difluoro-4-Methylumbelliferyl Phosphate (DIFMUP) that is stored at −20° C. Alternatively or in addition to, the assay is performed using other phosphated substrate (e.g., fluorescein diphosphate). Each PTP enzyme is diluted in the assay buffer
(§3) The assay can be carried out at room temperature in multiplate format, e.g., using 384 well plates. A small molecule PTPN2 inhibitor dissolved in DMSO at one of 10 concentrations from a serial dilution or DMSO alone for control is added to each well. A mixture of the assay buffer comprising PTP enzyme (e.g., 0.025 ng/ul PTPN2) is added to each well and mixed for approximately 2 minutes. The reaction is initiated by adding DiFMUP diluted in the assay buffer to a final concentration of approximately 45 μM DiFMUP in PTPN2 assay. For each PTP enzyme, DiFMUP is added at the Km (Michaelis constant) of the enzyme that had been independently determined. The phosphatase activity of the PTP enzyme is assessed by monitoring appearance of a fluorescent product (6,8-difluoro-7-hydroxyl-4-coumarin (DiFMU) from DiFMUP) continuously for about 15 to 30 minutes, using the INFINITE M1000Pro plate reader (Tecan) with excitation at 360 nm and emission at 450 nm (cutoff filter at 435 nm) for DiFMU. Each assay is performed at least in duplicate. The rate (e.g., the initial rate) of DiFMU formation is plotted against the concentration of the small molecule PTPN2 inhibitor, and the data is fitted (e.g., using a 4-parameter equation) to determine the inflection point of the fit as the IC50 of the small molecule PTPN2 inhibitor for a specific enzyme. Utilizing this assay, the ability of the compounds in Table 2 to inhibit PTPN2 and PTP1B has been assessed. Table 3 summarizes the IC50 values.

Another experiment deals with T2, PTPN1 (i.e., PTP1B) (Homo sapiens, UniProt P18031).
T2 sequence (P18031 1-435): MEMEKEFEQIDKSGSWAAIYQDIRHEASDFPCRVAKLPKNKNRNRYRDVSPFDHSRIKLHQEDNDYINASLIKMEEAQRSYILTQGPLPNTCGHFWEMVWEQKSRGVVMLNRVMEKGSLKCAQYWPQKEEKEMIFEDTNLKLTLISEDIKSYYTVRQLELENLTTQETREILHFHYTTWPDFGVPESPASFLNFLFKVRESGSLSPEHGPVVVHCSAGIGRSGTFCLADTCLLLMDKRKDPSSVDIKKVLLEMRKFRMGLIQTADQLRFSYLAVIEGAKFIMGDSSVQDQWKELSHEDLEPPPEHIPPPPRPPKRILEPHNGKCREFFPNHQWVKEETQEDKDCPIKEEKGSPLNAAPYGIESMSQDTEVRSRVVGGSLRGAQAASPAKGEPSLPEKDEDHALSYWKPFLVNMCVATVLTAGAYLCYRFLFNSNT
Kind of experiment: Phosphatase activity assay (DiFMUP substrate), PTP1B. The format is biochemical. To be noted: compounds binned ≤1 uM or >1 uM. On the procedure:
as §1, §2, §3

For `Cn1ncc2cc(-c3ccc(O)c(N4CC(=O)NS4(=O)=O)c3F)ccc21` [Compound 112, 5-(2-fluoro-6-hydroxy-3-(1-methyl-1H-indazol-5-yl)phenyl)-1,2,5-thiadiazolidin-3-one 1,1-dioxide], the IC50 – broadly, the concentration that inhibits the measured activity by half – on PTPN2 (i.e., TC-PTP) was at most 1000 nM; at PTPN1 (i.e., PTP1B) it was at most 1000 nM.

Consider `O=C1CN(c2c(O)ccc(-c3cnn(Cc4cc(F)cc(F)c4)c3)c2F)S(=O)(=O)N1` [Compound 113, 5-(3-(1-(3,5-difluorobenzyl)-1H-pyrazol-4-yl)-2-fluoro-6-hydroxyphenyl)-1,2,5-thiadiazolidin-3-one 1,1-dioxide], for which the IC50 at PTPN2 (i.e., TC-PTP) is at most 1000 nM; at PTPN1 (i.e., PTP1B), at most 1000 nM.

On to `O=C1CN(c2c(O)ccc(-c3ccc4[nH]ncc4c3)c2F)S(=O)(=O)N1` [Compound 114, 5-(2-fluoro-6-hydroxy-3-(1H-indazol-5-yl)phenyl)-1,2,5-thiadiazolidin-3-one 1,1-dioxide], for which the IC50 on PTPN2 (i.e., TC-PTP) was at most 1000 nM; on PTPN1 (i.e., PTP1B) it was at most 1000 nM.

Regarding `Cn1cnc(-c2ccc(O)c(N3CC(=O)NS3(=O)=O)c2F)c1` [Compound 115], the concentration for half-maximal inhibition (IC50) on PTPN2 (i.e., TC-PTP) was at most 1000 nM; on PTPN1 (i.e., PTP1B), at most 1000 nM.

Regarding `Cn1ccc(-c2ccc(F)c(N3CC(=O)NS3(=O)=O)c2F)c1` [Compound 116, 5-(2,6-difluoro-3-(1-methyl-1H-pyrrol-3-yl)phenyl)-1,2,5-thiadiazolidin-3-one 1,1-dioxide], the half-maximal inhibitory concentration (IC50) at PTPN2 (i.e., TC-PTP) was over 1000 nM; at PTPN1 (i.e., PTP1B) it was over 1000 nM.

As for `O=C1CN(c2c(O)ccc(-c3ccc(N4CCCC4)cc3)c2F)S(=O)(=O)N1` [Compound 117, 5-(2-fluoro-4-hydroxy-4′-(pyrrolidin-1-yl)-[1,1′-biphenyl]-3-yl)-1,2,5-thiadiazolidin-3-one 1,1-dioxide], the IC50 on PTPN2 (i.e., TC-PTP) was at most 1000 nM; on PTPN1 (i.e., PTP1B), at most 1000 nM.

Regarding `COc1ncc(-c2ccc(O)c(N3CC(=O)NS3(=O)=O)c2F)cn1` [Compound 118, 5-(2-fluoro-6-hydroxy-3-(2-methoxypyrimidin-5-yl)phenyl)-1,2,5-thiadiazolidin-3-one 1,1-dioxide], the IC50 at PTPN2 (i.e., TC-PTP) was at most 1000 nM; at PTPN1 (i.e., PTP1B) it was at most 1000 nM.

Turning to `Cc1c(-c2cnn(CCC(C)C)c2)ccc(O)c1N1CC(=O)NS1(=O)=O` [Compound 119, 5-(6-hydroxy-3-(1-isopentyl-1H-pyrazol-4-yl)-2-methylphenyl)-1,2,5-thiadiazolidin-3-one 1,1-dioxide], the IC50 was at most 1000 nM at PTPN2 (i.e., TC-PTP) and at most 1000 nM at PTPN1 (i.e., PTP1B).

Turning to `O=C1CN(c2c(O)ccc(-c3ccc(-c4ccccc4)nc3)c2F)S(=O)(=O)N1` [Compound 120, 5-(2-fluoro-6-hydroxy-3-(6-phenylpyridin-3-yl)phenyl)-1,2,5-thiadiazolidin-3-one 1,1-dioxide], the 50% inhibitory concentration (IC50) at PTPN2 (i.e., TC-PTP) is at most 1000 nM; on PTPN1 (i.e., PTP1B) it was at most 1000 nM.

As to `O=C1CN(c2c(O)ccc(-c3nnc(-c4ccccc4)o3)c2F)S(=O)(=O)N1` [Compound 121, 5-(2-fluoro-6-hydroxy-3-(5-phenyl-1,3,4-oxadiazol-2-yl)phenyl)-1,2,5-thiadiazolidin-3-one 1,1-dioxide], the half-maximal inhibitory concentration (IC50) on PTPN2 (i.e., TC-PTP) was over 1000 nM; on PTPN1 (i.e., PTP1B), over 1000 nM.

Consider `O=C1CN(c2c(O)ccc(-c3cccc(N4CCCC4)c3)c2F)S(=O)(=O)N1` [Compound 122, 5-(2-fluoro-4-hydroxy-3′-(pyrrolidin-1-yl)-[1,1′-biphenyl]-3-yl)-1,2,5-thiadiazolidin-3-one 1,1-dioxide], for which the IC50 was at most 1000 nM at PTPN2 (i.e., TC-PTP) and at most 1000 nM on PTPN1 (i.e., PTP1B).

As for `O=C1CN(c2c(O)ccc(-c3cnn(C4CCCC4)c3)c2F)S(=O)(=O)N1` [Compound 123, 5-(3-(1-cyclopentyl-1H-pyrazol-4-yl)-2-fluoro-6-hydroxyphenyl)-1,2,5-thiadiazolidin-3-one 1,1-dioxide], the IC50 at PTPN2 (i.e., TC-PTP) was at most 1000 nM; on PTPN1 (i.e., PTP1B) it was at most 1000 nM.

As for `O=C1CN(c2c(O)ccc(-c3cc(-c4ccccc4)n[nH]3)c2F)S(=O)(=O)N1` [Compound 124, 5-(2-fluoro-6-hydroxy-3-(3-phenyl-1H-pyrazol-5-yl)phenyl)-1,2,5-thiadiazolidin-3-one 1,1-dioxide], the half-maximal inhibitory concentration (IC50) at PTPN2 (i.e., TC-PTP) is at most 1000 nM; at PTPN1 (i.e., PTP1B), at most 1000 nM.

With `CC(C)CCn1ccc(-c2ccc(O)c(N3CC(=O)NS3(=O)=O)c2F)c1` [Compound 125, 5-(2-fluoro-6-hydroxy-3-(1-isopentyl-1H-pyrrol-3-yl)phenyl)-1,2,5-thiadiazolidin-3-one 1,1-dioxide], the IC50 at PTPN2 (i.e., TC-PTP) is at most 1000 nM; on PTPN1 (i.e., PTP1B), at most 1000 nM.

Regarding `Cc1ccc(-c2ccc(O)c(N3CC(=O)NS3(=O)=O)c2F)o1` [Compound 126, 5-(2-fluoro-6-hydroxy-3-(5-methylfuran-2-yl)phenyl)-1,2,5-thiadiazolidin-3-one 1,1-dioxide], the IC50 on PTPN2 (i.e., TC-PTP) was at most 1000 nM; on PTPN1 (i.e., PTP1B), at most 1000 nM.

For the compound `COc1cccc(Cn2cc(-c3ccc(O)c(N4CC(=O)NS4(=O)=O)c3F)cn2)c1` [Compound 127, 5-(2-fluoro-6-hydroxy-3-(1-(3-methoxybenzyl)-1H-pyrazol-4-yl)phenyl)-1,2,5-thiadiazolidin-3-one 1,1-dioxide], the half-inhibitory concentration (IC50) was at most 1000 nM on PTPN2 (i.e., TC-PTP) and at most 1000 nM at PTPN1 (i.e., PTP1B).

On to `Cc1ccc(-c2ccc(O)c(N3CC(=O)NS3(=O)=O)c2F)s1` [Compound 128, 5-(2-fluoro-6-hydroxy-3-(5-methylthiophen-2-yl)phenyl)-1,2,5-thiadiazolidin-3-one 1,1-dioxide], for which the half-maximal inhibitory concentration (IC50) at PTPN2 (i.e., TC-PTP) is at most 1000 nM; at PTPN1 (i.e., PTP1B), at most 1000 nM.

For the compound `O=C1CN(c2c(O)ccc(-c3cc[nH]c3)c2F)S(=O)(=O)N1` [Compound 129, 5-(2-fluoro-6-hydroxy-3-(1H-pyrrol-3-yl)phenyl)-1,2,5-thiadiazolidin-3-one 1,1-dioxide], the IC50 at PTPN2 (i.e., TC-PTP) was at most 1000 nM; at PTPN1 (i.e., PTP1B), at most 1000 nM.

As to `N#CCn1cc(-c2ccc(O)c(N3CC(=O)NS3(=O)=O)c2F)cn1` [Compound 130, 2-(4-(3-(1,1-dioxido-4-oxo-1,2,5-thiadiazolidin-2-yl)-2-fluoro-4-hydroxyphenyl)-1H-pyrazol-1-yl)acetonitrile], the IC50 is at most 1000 nM at PTPN2 (i.e., TC-PTP) and at most 1000 nM at PTPN1 (i.e., PTP1B).

As to `O=C1CN(c2c(O)ccc(-c3cnn(CC4CC4)c3)c2F)S(=O)(=O)N1` [Compound 131, 5-(3-(1-(cyclopropylmethyl)-1H-pyrazol-4-yl)-2-fluoro-6-hydroxyphenyl)-1,2,5-thiadiazolidin-3-one 1,1-dioxide], the IC50 was at most 1000 nM at PTPN2 (i.e., TC-PTP) and at most 1000 nM at PTPN1 (i.e., PTP1B).

As to `CC(C)CCn1cc(-c2ccc(O)c(N3CC(=O)NS3(=O)=O)c2)cn1` [Compound 132, 5-(2-hydroxy-5-(1-isopentyl-1H-pyrazol-4-yl)phenyl)-1,2,5-thiadiazolidin-3-one 1,1-dioxide], the IC50 was at most 1000 nM at PTPN2 (i.e., TC-PTP) and at most 1000 nM on PTPN1 (i.e., PTP1B).

Turning to `O=C1CN(c2c(O)ccc(-c3cnn(C4CC4)c3)c2F)S(=O)(=O)N1` [Compound 133, 5-(3-(1-cyclopropyl-1H-pyrazol-4-yl)-2-fluoro-6-hydroxyphenyl)-1,2,5-thiadiazolidin-3-one 1,1-dioxide], the IC50 is at most 1000 nM on PTPN2 (i.e., TC-PTP) and at most 1000 nM at PTPN1 (i.e., PTP1B).
